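These data come from cells grown in 96-well plates and exposed to compound for 48 hours at five concentrations. GI50 marks 50% less growth. At the TGI there is no net growth.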
Experiments:
Experiment in all cases: growth of human tumour cells (NCI), 48 h
COLO 205 colon = test system: COLO 205 colon
SF-295 CNS = test system: SF-295 CNS
A549 NSCLC = test system: A549 NSCLC
UACC-62 melanoma = test system: UACC-62 melanoma
RXF 393 renal = test system: RXF 393 renal
SF-539 CNS = test system: SF-539 CNS
SW-620 colon = test system: SW-620 colon
HCT-116 colon = test system: HCT-116 colon
SK-MEL-5 melanoma = test system: SK-MEL-5 melanoma
EKVX NSCLC = test system: EKVX NSCLC
SR leukemia = test system: SR leukemia
ACHN renal = test system: ACHN renal
IGROV1 ovarian = test system: IGROV1 ovarian
NCI-H460 lung = test system: NCI-H460 lung
SK-MEL-28 melanoma = test system: SK-MEL-28 melanoma
MOLT-4 leukemia = test system: MOLT-4 leukemia
UACC-257 melanoma = test system: UACC-257 melanoma
UO-31 renal = test system: UO-31 renal
LOX IMVI melanoma = test system: LOX IMVI melanoma
BT-549 breast = test system: BT-549 breast
TK-10 renal = test system: TK-10 renal
SK-MEL-2 melanoma = test system: SK-MEL-2 melanoma
SNB-19 CNS = test system: SNB-19 CNS
MDA-MB-435 = test system: MDA-MB-435
OVCAR-8 ovarian = test system: OVCAR-8 ovarian
RPMI-8226 leukemia = test system: RPMI-8226 leukemia
T-47D breast = test system: T-47D breast
SN12C renal = test system: SN12C renal
CCRF-CEM leukemia = test system: CCRF-CEM leukemia
HOP-62 NSCLC = test system: HOP-62 NSCLC
HCT-15 colon = test system: HCT-15 colon
SF-268 CNS = test system: SF-268 CNS
786-0 renal = test system: 786-0 renal
A498 renal = test system: A498 renal
NCI/ADR-RES ovarian = test system: NCI/ADR-RES ovarian
HS 578T breast = test system: HS 578T breast
HCC-2998 colon = test system: HCC-2998 colon
NCI-H522 lung = test system: NCI-H522 lung
NCI-H226 lung = test system: NCI-H226 lung
U251 CNS = test system: U251 CNS
HL-60(TB) leukemia = test system: HL-60(TB) leukemia
HT29 colon = test system: HT29 colon
DU-145 prostate = test system: DU-145 prostate
MALME-3M melanoma = test system: MALME-3M melanoma
MDA-MB-231 breast = test system: MDA-MB-231 breast
SNB-75 CNS = test system: SNB-75 CNS
OVCAR-3 ovarian = test system: OVCAR-3 ovarian
M14 melanoma = test system: M14 melanoma
SK-OV-3 ovarian = test system: SK-OV-3 ovarian
KM12 colon = test system: KM12 colon
CAKI-1 renal = test system: CAKI-1 renal
PC-3 prostate = test system: PC-3 prostate
OVCAR-4 ovarian = test system: OVCAR-4 ovarian
HOP-92 NSCLC = test system: HOP-92 NSCLC
OVCAR-5 ovarian = test system: OVCAR-5 ovarian
K-562 leukemia = test system: K-562 leukemia
NCI-H23 lung = test system: NCI-H23 lung
MCF7 breast = test system: MCF7 breast

## CN(C)CCCNc1c2ccc(Cl)cc2nc2c1oc1ccc(Cl)cc12
COLO 205 colon
  GI50: 4.58 µM
  TGI: 20 µM
SF-295 CNS
  GI50: 4.72 µM
  TGI: 17.1 µM
A549 NSCLC
  GI50: 1.67 µM
  TGI: 3.18 µM
UACC-62 melanoma
  GI50: 16.4 µM
  TGI: 31.6 µM
RXF 393 renal
  GI50: 2.68 µM
  TGI: 8.4 µM
SF-539 CNS
  GI50: 1.81 µM
  TGI: 3.24 µM
SW-620 colon
  GI50: 1.64 µM
  TGI: 3.63 µM
HCT-116 colon
  GI50: 1.43 µM
  TGI: 2.79 µM
SK-MEL-5 melanoma
  GI50: 16.3 µM
  TGI: 29.8 µM
EKVX NSCLC
  GI50: 4.76 µM
  TGI: 17.3 µM
SR leukemia
  GI50: 3.04 µM
  TGI: 10.1 µM
ACHN renal
  GI50: 1.7 µM
  TGI: 3.23 µM
IGROV1 ovarian
  GI50: 3.66 µM
  TGI: 15.9 µM
NCI-H460 lung
  GI50: 2.1 µM
  TGI: 4.8 µM
SK-MEL-28 melanoma
  GI50: 14 µM
  TGI: 27.2 µM
MOLT-4 leukemia
  GI50: 3.14 µM
  TGI: 11.8 µM
UACC-257 melanoma
  GI50: 12.3 µM
  TGI: 25.5 µM
UO-31 renal
  GI50: 4.13 µM
  TGI: 18.3 µM
LOX IMVI melanoma
  GI50: 1.89 µM
  TGI: 3.4 µM
BT-549 breast
  GI50: 11.4 µM
  TGI: 25 µM
TK-10 renal
  GI50: 13.1 µM
  TGI: 26 µM
SK-MEL-2 melanoma
  GI50: 13.6 µM
  TGI: 26.8 µM
SNB-19 CNS
  GI50: 5.97 µM
  TGI: 18.8 µM
MDA-MB-435
  GI50: 2.18 µM
  TGI: 5.57 µM
OVCAR-8 ovarian
  GI50: 2.07 µM
  TGI: 4.45 µM
RPMI-8226 leukemia
  GI50: 2.58 µM
  TGI: 7.84 µM
T-47D breast
  GI50: 13.1 µM
  TGI: 29.2 µM
SN12C renal
  GI50: 1.72 µM
  TGI: 3.51 µM
CCRF-CEM leukemia
  GI50: 3.42 µM
  TGI: 12.2 µM
HOP-62 NSCLC
  GI50: 5.21 µM
  TGI: 19.6 µM
HCT-15 colon
  GI50: 2.1 µM
  TGI: 5.71 µM
SF-268 CNS
  GI50: 3.45 µM
  TGI: 15.3 µM
786-0 renal
  GI50: 1.65 µM
  TGI: 3.25 µM
A498 renal
  GI50: 15.3 µM
  TGI: 31.4 µM
NCI/ADR-RES ovarian
  GI50: 2.31 µM
  TGI: 6.59 µM
HS 578T breast
  GI50: 8.82 µM
  TGI: 28.2 µM
HCC-2998 colon
  GI50: 1.84 µM
  TGI: 3.38 µM
NCI-H522 lung
  GI50: 4.22 µM
  TGI: 17 µM
NCI-H226 lung
  GI50: 6.32 µM
  TGI: 20.9 µM
U251 CNS
  GI50: 1.76 µM
  TGI: 3.35 µM
HL-60(TB) leukemia
  GI50: 1.98 µM
  TGI: 4.81 µM
HT29 colon
  GI50: 1.69 µM
  TGI: 3.5 µM
DU-145 prostate
  GI50: 3.01 µM
  TGI: 9.1 µM
MALME-3M melanoma
  GI50: 4.76 µM
  TGI: 20.5 µM
MDA-MB-231 breast
  GI50: 2.19 µM
  TGI: 5.94 µM
SNB-75 CNS
  GI50: 5.25 µM
  TGI: 19.2 µM
OVCAR-3 ovarian
  GI50: 2.24 µM
  TGI: 4.99 µM
M14 melanoma
  GI50: 1.71 µM
  TGI: 3.78 µM
SK-OV-3 ovarian
  GI50: 10.1 µM
  TGI: 21.7 µM
KM12 colon
  GI50: 2.65 µM
  TGI: 8.35 µM
CAKI-1 renal
  GI50: 1.49 µM
  TGI: 2.9 µM
PC-3 prostate
  GI50: 1.81 µM
  TGI: 3.86 µM
OVCAR-4 ovarian
  GI50: 1.67 µM
  TGI: 3.32 µM
HOP-92 NSCLC
  GI50: 1.41 µM
  TGI: 7.69 µM
OVCAR-5 ovarian
  GI50: 7.03 µM
  TGI: 19.7 µM
K-562 leukemia
  GI50: 2.73 µM

## O=c1oc2ccc(-c3ccc(F)cc3F)cc2c(=O)n1-c1cccc(C(F)(F)F)c1
COLO 205 colon
  GI50: 5.91 µM
  TGI: 14.4 µM
SF-295 CNS
  GI50: 1.23 µM
  TGI: 3.34 µM
A549 NSCLC
  GI50: 1.68 µM
  TGI: > 50 µM
UACC-62 melanoma
  GI50: 1.2 µM
  TGI: 3.65 µM
RXF 393 renal
  GI50: 1.28 µM
  TGI: 3.93 µM
SF-539 CNS
  GI50: 1.59 µM
  TGI: 6.45 µM
SW-620 colon
  GI50: 1.61 µM
  TGI: 6.47 µM
NCI-H23 lung
  GI50: 1.13 µM
  TGI: 3.73 µM
HCT-116 colon
  GI50: 1.55 µM
  TGI: 5.85 µM
EKVX NSCLC
  GI50: 1.18 µM
  TGI: 4.64 µM
SR leukemia
  GI50: 1.64 µM
  TGI: > 50 µM
ACHN renal
  GI50: 1.39 µM
  TGI: 4.26 µM
IGROV1 ovarian
  GI50: 1.49 µM
  TGI: 8.81 µM
NCI-H460 lung
  GI50: 1.53 µM
  TGI: 5.77 µM
SK-MEL-28 melanoma
  GI50: 1.73 µM
  TGI: 7.48 µM
MOLT-4 leukemia
  GI50: 1.55 µM
  TGI: 6.89 µM
UACC-257 melanoma
  GI50: 1.21 µM
  TGI: 3.87 µM
UO-31 renal
  GI50: 1.13 µM
  TGI: 4.92 µM
BT-549 breast
  GI50: 1.66 µM
  TGI: 6.77 µM
TK-10 renal
  GI50: 2.25 µM
  TGI: 12 µM
SK-MEL-2 melanoma
  GI50: 1.21 µM
  TGI: 3.37 µM
SNB-19 CNS
  GI50: 1.79 µM
  TGI: > 50 µM
MDA-MB-435
  GI50: 1.58 µM
  TGI: 5.34 µM
OVCAR-8 ovarian
  GI50: 1.72 µM
  TGI: > 50 µM
RPMI-8226 leukemia
  GI50: 1.03 µM
  TGI: 3.13 µM
T-47D breast
  GI50: 1.3 µM
  TGI: 4.13 µM
SN12C renal
  GI50: 1.35 µM
  TGI: 4.15 µM
CCRF-CEM leukemia
  GI50: 1.71 µM
  TGI: 24.5 µM
HOP-62 NSCLC
  GI50: 1.48 µM
  TGI: 6.33 µM
HCT-15 colon
  GI50: 1.53 µM
  TGI: 5.6 µM
SF-268 CNS
  GI50: 1.55 µM
  TGI: 12 µM
786-0 renal
  GI50: 1.77 µM
  TGI: 9.55 µM
A498 renal
  GI50: 0.902 µM
  TGI: 2.38 µM
NCI/ADR-RES ovarian
  GI50: 1.27 µM
  TGI: 3.96 µM
HS 578T breast
  GI50: 1.31 µM
  TGI: 4.64 µM
HCC-2998 colon
  GI50: 1.6 µM
  TGI: 6.24 µM
NCI-H522 lung
  GI50: 1.42 µM
  TGI: 6.02 µM
NCI-H226 lung
  GI50: 1.51 µM
  TGI: 5.58 µM
U251 CNS
  GI50: 1.7 µM
  TGI: > 50 µM
HL-60(TB) leukemia
  GI50: 1.1 µM
  TGI: 2.89 µM
HT29 colon
  GI50: 6.24 µM
  TGI: > 50 µM
DU-145 prostate
  GI50: 2 µM
  TGI: > 50 µM
MALME-3M melanoma
  GI50: 1.16 µM
  TGI: 3.26 µM
MDA-MB-231 breast
  GI50: 1.21 µM
  TGI: 2.97 µM
SNB-75 CNS
  GI50: 0.906 µM
  TGI: 2.59 µM
M14 melanoma
  GI50: 1.71 µM
  TGI: 8.41 µM
SK-OV-3 ovarian
  GI50: 1.31 µM
  TGI: 3.97 µM
KM12 colon
  GI50: 1.61 µM
  TGI: 5.46 µM
MCF7 breast
  GI50: 1.29 µM
  TGI: 4.79 µM
CAKI-1 renal
  GI50: 1.02 µM
  TGI: 2.99 µM
PC-3 prostate
  GI50: 1.64 µM
  TGI: 7.54 µM
OVCAR-4 ovarian
  GI50: 1.61 µM
  TGI: 40.1 µM
HOP-92 NSCLC
  GI50: 0.952 µM
  TGI: 2.78 µM
OVCAR-5 ovarian
  GI50: 1.55 µM
  TGI: > 50 µM
K-562 leukemia
  GI50: 1.63 µM
  TGI: > 50 µM
